We go through eleven compounds from ChEMBL document CHEMBL1201862, “PubChem BioAssay data set” (2004).

Test systems include Malme-3M; DU-145; Hs-578T; NCI-H23; U-251; SK-MEL-28; UACC-62; HT-29; NCI-H522; MDA-N; SW-620; OVCAR-8; HCT-116; CAKI-1; HCT-15; HCC 2998; SN12C; SK-OV-3; NCI-H226; MCF7.
What all share (assay): growth of human tumour cells (NCI), 48 h

Molecules are shown by their SMILES.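 Results reflect a 48-hour exposure of cells in 96-well plates to compound at five concentrations. GI50 is the concentration that inhibits growth by half.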 The source made the active and inactive calls. Rule as the data show it: active = GI50 up to about 1.1 µM and inactive = higher.

On to `CC(C)(C)C(=O)C(C(c1ccccc1)N1CCOCC1)N1CCOCC1` (stereo not given), for which the GI50 in the test on Malme-3M, with DU-145, in the test on Hs-578T, in the test on NCI-H23, in the test on U-251 and in the test with SK-MEL-28 was > 100 µM (inactive) in each case. Further, the GI50 in the test with UACC-62, in the test with HT-29, in the test on NCI-H522, in the test on MDA-N, in the test on SW-620 and with OVCAR-8 was > 100 µM (inactive) each time. Besides, the GI50 was > 100 µM (inactive) with HCT-116; > 100 µM (inactive) in the test on CAKI-1; over 100 µM with HCT-15; > 100 µM (inactive) with HCC 2998; > 100 µM (inactive) in the test on SN12C.
In the case of `N/C(=N\c1ccc(Cl)cc1)NS(=O)(=O)c1ccc(-c2ccccn2)s1`, the GI50 in the test on Malme-3M is 12.4 µM (inactive); in the test with SK-OV-3 it was 22.1 µM (inactive); with DU-145, 17 µM (inactive); in the test on Hs-578T, 24.8 µM (inactive); in the test on NCI-H23, 15.9 µM (inactive); in the test with U-251, 15 µM (inactive). Besides, the GI50 is 19.4 µM (inactive) in the test with SK-MEL-28; 13.4 µM (inactive) with UACC-62; 18.3 µM (inactive) in the test on HT-29; 9.27 µM (inactive) with NCI-H522; 6.89 µM (inactive) in the test with MDA-N; 19.4 µM (inactive) with SW-620. For the same compound, the GI50 with OVCAR-8 is 19 µM (inactive); in the test with HCT-116, 16.9 µM (inactive); in the test on CAKI-1 it was 2.07 µM (inactive); in the test on NCI-H226, 17.3 µM (inactive); with HCT-15 it was 17.5 µM; with SN12C, 15.5 µM (inactive). Further, in the test on MCF7, the GI50 is 17.1 µM (inactive).
With `C[C@@H](C(=O)O)N1C(c2ccco2)=C(/C(C=O)=C\c2ccco2)C(=O)/C1=C\c1ccco1`, the GI50 with Malme-3M, with DU-145, in the test with Hs-578T, with NCI-H23, with U-251 and in the test on SK-MEL-28 was > 100 µM (inactive) in each case. Moreover, the GI50 in the test with UACC-62, with HT-29, with NCI-H522, with MDA-N, with SW-620 and in the test with OVCAR-8 was > 100 µM (inactive) throughout. For the same compound, the GI50 was > 100 µM (inactive) with HCT-116; > 100 µM (inactive) with CAKI-1; over 100 µM in the test with HCT-15; > 100 µM (inactive) with SN12C; > 100 µM (inactive) in the test on MCF7.
With `N#Cc1cc(N(CCCl)CCCl)c([N+](=O)[O-])cc1[N+](=O)[O-]`, the GI50 with Malme-3M is 60.8 µM (inactive); with SK-OV-3 it was > 100 µM (inactive); with DU-145 it was 32.4 µM (inactive); in the test on Hs-578T it was > 100 µM (inactive); with NCI-H23 it was > 100 µM (inactive); with U-251 it was > 100 µM (inactive). Besides, the GI50 in the test on SK-MEL-28 is > 100 µM (inactive); in the test on UACC-62, > 100 µM (inactive); in the test on HT-29 it was > 100 µM (inactive); in the test with NCI-H522, 87.9 µM (inactive); in the test on MDA-N it was > 100 µM (inactive); with SW-620 it was > 100 µM (inactive). Moreover, the GI50 with OVCAR-8 is > 100 µM (inactive); in the test on HCT-116 it was > 100 µM (inactive); in the test on CAKI-1, 11.1 µM (inactive); in the test with HCT-15 it was over 100 µM; in the test on SN12C, 48 µM (inactive); in the test on MCF7 it was 86.3 µM (inactive).
Turning to `Oc1ccc2oc3c(O)c4ccccc4cc3c2c1`, the GI50 with Malme-3M is 11.4 µM (inactive); in the test with SK-OV-3, 16.2 µM (inactive); with DU-145, 3.27 µM (inactive); with Hs-578T, 23.2 µM (inactive); in the test with NCI-H23, 10.6 µM (inactive); in the test with U-251, 4.86 µM (inactive). Besides, the GI50 with SK-MEL-28 is 7.24 µM (inactive); in the test on UACC-62, 0.121 µM (active); in the test with HT-29, 17.5 µM (inactive); in the test with NCI-H522 it was 1.01 µM (active); in the test on MDA-N, 0.927 µM (active); in the test with SW-620, 0.69 µM (active). Further, the GI50 in the test with OVCAR-8 is 4.56 µM (inactive); in the test on HCT-116, 0.296 µM (active); in the test on CAKI-1, 5.32 µM (inactive); in the test with HCT-15, 1.98 µM; in the test on SN12C, 2.36 µM (inactive); in the test with MCF7, 3.33 µM (inactive).
As to `CCCCSC1=N/C(=C\c2ccc(N(C)C)cc2)C(=O)N1`, the GI50 in the test with Malme-3M is 38.4 µM (inactive); with SK-OV-3 it was 41.2 µM (inactive); in the test with DU-145, 60.1 µM (inactive); with Hs-578T it was 25.2 µM (inactive); in the test with NCI-H23, 67.9 µM (inactive); with U-251, 18.4 µM (inactive). Further, the GI50 is 61.9 µM (inactive) in the test on SK-MEL-28; 20.7 µM (inactive) with UACC-62; 11.9 µM (inactive) in the test with HT-29; 21.7 µM (inactive) in the test on NCI-H522; 33.6 µM (inactive) with MDA-N; 48.2 µM (inactive) in the test with SW-620. Besides, the GI50 is 54.1 µM (inactive) with OVCAR-8; 25 µM (inactive) in the test with HCT-116; 35.6 µM (inactive) in the test on CAKI-1; 18 µM (inactive) in the test on NCI-H226; 53.5 µM in the test on HCT-15; 16.3 µM (inactive) in the test with SN12C. The GI50 in the test on MCF7 is 30.5 µM (inactive).
`O=c1oc2ccc3ccccc3c2cc1-c1nnc(-c2ccc([N+](=O)[O-])cc2)[nH]1`: the GI50 in the test with Malme-3M was 91.2 µM (inactive); with SK-OV-3, 23.6 µM (inactive); in the test with DU-145 it was 87.3 µM (inactive); with Hs-578T, 11.5 µM (inactive); in the test on NCI-H23, 17.7 µM (inactive); with U-251, 29.6 µM (inactive). Moreover, the GI50 was > 100 µM (inactive) in the test with SK-MEL-28; > 100 µM (inactive) with UACC-62; > 100 µM (inactive) in the test on HT-29; 92 µM (inactive) with NCI-H522; > 100 µM (inactive) in the test with MDA-N; > 100 µM (inactive) in the test with SW-620. In addition, the GI50 in the test with OVCAR-8 was 21.4 µM (inactive); in the test on HCT-116, > 100 µM (inactive); in the test on CAKI-1, > 100 µM (inactive); with HCT-15, over 100 µM; in the test on HCC 2998 it was > 100 µM (inactive); with MCF7 it was > 100 µM (inactive).
`COC(=O)c1cccc2c1Oc1ccccc1S2`: the GI50 in the test on SK-OV-3 was > 100 µM (inactive); in the test with DU-145 it was > 100 µM (inactive); in the test with Hs-578T, 40.6 µM (inactive); in the test on U-251, 59.6 µM (inactive); with SK-MEL-28, 96.8 µM (inactive); with UACC-62 it was > 100 µM (inactive). Also, the GI50 is 25.9 µM (inactive) in the test with HT-29; 27.1 µM (inactive) in the test on NCI-H522; > 100 µM (inactive) with MDA-N; 59.6 µM (inactive) in the test with SW-620; 74.3 µM (inactive) in the test with OVCAR-8; 47.1 µM (inactive) with HCT-116. The GI50 with CAKI-1 was 14.5 µM (inactive); in the test on NCI-H226, 37.4 µM (inactive); with HCT-15 it was 46.1 µM; with SN12C, 56.6 µM (inactive); in the test on MCF7 it was 37.2 µM (inactive).
As for `COC(=O)/C=C/c1ccc2c(c1)CCC2`, the GI50 is 66.5 µM (inactive) in the test on Malme-3M; > 100 µM (inactive) in the test on SK-OV-3; 43.3 µM (inactive) in the test on DU-145; > 100 µM (inactive) with Hs-578T; 37.2 µM (inactive) in the test on NCI-H23; 9.79 µM (inactive) in the test with U-251. The GI50 in the test on SK-MEL-28 was > 100 µM (inactive); with HT-29, 26.8 µM (inactive); in the test on NCI-H522 it was 22.1 µM (inactive); in the test on MDA-N, > 100 µM (inactive); in the test with SW-620, 5.13 µM (inactive); in the test with OVCAR-8 it was 53.5 µM (inactive). Also, the GI50 in the test on HCT-116 was 22.3 µM (inactive); in the test with CAKI-1, 17.4 µM (inactive); with HCT-15, 17.3 µM; in the test with HCC 2998, > 100 µM (inactive); with MCF7, 52.5 µM (inactive).
On to `Cn1c(=S)c2nc(SCCN3C(=O)c4ccccc4C3=O)[nH]c2n(C)c1=O`, for which the GI50 in the test on Malme-3M, with SK-OV-3, with DU-145, with Hs-578T, in the test on NCI-H23 and with U-251 was > 100 µM (inactive) throughout. Also, the GI50 was > 100 µM (inactive) in the test with SK-MEL-28; > 100 µM (inactive) with UACC-62; > 100 µM (inactive) in the test with HT-29; 5.27 µM (inactive) in the test on NCI-H522; > 100 µM (inactive) in the test with MDA-N; > 100 µM (inactive) in the test on SW-620. Besides, the GI50 with OVCAR-8 is > 100 µM (inactive); in the test on HCT-116, > 100 µM (inactive); with CAKI-1, > 100 µM (inactive); in the test with NCI-H226, > 100 µM (inactive); in the test with HCT-15 it was over 100 µM; with SN12C, > 100 µM (inactive). The GI50 with MCF7 is 32.7 µM (inactive).
Take `CC1=C(C)CC2(C=C(C(C)(C)C)C(=O)C(C(C)(C)C)=C2)SC1`: the GI50 is 14.2 µM (inactive) in the test on Malme-3M; 25 µM (inactive) in the test with SK-OV-3; 39.3 µM (inactive) in the test on DU-145; 16.9 µM (inactive) with Hs-578T; 18.5 µM (inactive) in the test on NCI-H23; 15.6 µM (inactive) in the test with U-251. The GI50 was 29.2 µM (inactive) in the test with UACC-62; 19.9 µM (inactive) with HT-29; 1.91 µM (inactive) in the test on NCI-H522; 27.2 µM (inactive) with MDA-N; 18.2 µM (inactive) with SW-620; 28.4 µM (inactive) in the test on HCT-116. Further, the GI50 in the test with CAKI-1 was 21.5 µM (inactive); in the test on NCI-H226 it was 17 µM (inactive); with SN12C, 17.4 µM (inactive); with MCF7 it was 15.6 µM (inactive).
